≈ marks a conversion by molar mass, not a printed value. Like-named read-outs stand apart in the source and are kept apart here.
Key:
[1] = test system: Toxoplasma gondii RH-GFP tachyzoites; test: In vitro anti-Tg assay (RH-GFP tachyzoite proliferation in Hs27 cells); assay type: cell-based; conditions: for SI (selectivity index, CC30/IC50Tg): CC30 in Hs27 / IC50Tg; for IC50: Toxoplasma gondii, HS27, 96 h, read-out: IC50Tg in Tg-Infected Hs27 Cells
T98G glioblastoma cells = test: Cytotoxicity against human glioblastoma T98G cells (MTT); assay type: cell-based; conditions: 24 h, read-out: IC50 against T98G cells
Method: The T98G glioblastoma cells (ATTC, CRL-1690, Manassas, VA, USA) were cultured in Dulbecco’s Modified Eagle Medium (DMEM, high glucose) (Sigma Aldrich, St. Louis, MO, USA), supplemented with 10% heat-inactivated FBS, penicillin (100 U/mL), and streptomycin (100 U/mL) (Sigma Aldrich, St. Louis, MO, USA). Cells were maintained in a humidified atmosphere of 5% CO2 and 95% air at 37 °C. Stock solutions of the investigated compounds (2, 7, 8 and 10, and temozolomide) were prepared by dissolving solid substances in sterile DMSO. T98G glioblastoma cells were seeded into 96-well sterile plates at a density of 4 × 10^4 cells/mL. After 24 h of incubation, the medium was removed from each well, and then the cells were incubated for the next 24 h with different concentrations of the investigated compounds ([…]) in the medium that contained 2% FBS. Viability of the T98G cells was evaluated using MTT assay. In brief, after 24 h of incubation of the cells with varying concentrations, 15 μL of MTT solution (5 mg/mL) was added to each well. After 3 h of incubation, […] (per well) of 10% SDS buffer solution was added. After overnight incubation, the absorbance was measured at 570 nm using a microplate reader (Epoch, BioTek Instruments, Winooski, VT, USA). Experiments were repeated three times, and the measurements in each experiment were run in quadruplicate. Viability of the investigated cells was expressed as % of the viability of the untreated cells.

in vitro = in vitro ADME; conditions: PAMPA, pH 7.4
Method: BBB permeability of 2, 7, 8, and 10 was investigated using a parallel artificial membrane permeability assay (PAMPA) method. The PAMPA system, which consisted of a 96-well microfilter plate, was divided into the following two chambers: a donor at the bottom and an acceptor at the top, separated by a 120 µm thick microfilter disc coated with BBB lipid solution (Pion, Inc., Billerica, MA, USA). The solutions of 2, 7, 8, and 10 were prepared in dimethylsulfoxide (DMSO) at 4 mg/mL concentration, and then diluted with Prisma buffer (pH = 7.4) to obtain the donor drug solution with the final nominal concentration of 20 µg/mL. Then, 180 µL of the donor solution was added to the donor wells. Subsequently, each filter membrane of the top plate was coated with 5 µL of BBB-1 lipid solution (Pion Inc., Billerica, MA, USA) and the acceptor well was filled with 200 µL of brain sink buffer (BSB). The acceptor plate and the donor plate were sandwiched together and incubated at 37 °C for 180 min.
The permeability coefficient value (Pe) was calculated using the following equation: Pe=−ln (1−CA/Cequilibrium)/S×(1/VD+1/VA)×t where VD—donor volume, VA—acceptor volume, Cequilibrium—equilibrium concentration, Cequilibrium=CD×VD+CA×VA/VD+VA , CD—donor concentration, CA—acceptor concentration, S—membrane area and t—incubation time (in seconds).

human red blood cells = test: Hemolytic activity determination; assay type: cell-based
Method: Human red blood cell (RBC) concentrate was obtained from the Regional Blood Donation and Transfusion Centre (Lublin, Poland). The RBC concentrate (5 mL) was washed three times with sterile PBS and centrifuged at 500× g for 3 min. The obtained pellet was resuspended using sterile PBS in order to obtain a 2% suspension of RBCs, which was subsequently mixed with 1 mL of different concentrations (i.e., […]) of 2, 7, 8, and 10. The mixtures were incubated at 37 °C for 30 min and centrifuged at 1400× g for 10 min. The amount of free hemoglobin in the supernatants was measured spectrophotometrically at 405 nm. Negative and positive controls were performed by incubating RBCs with sterile PBS and 0.1% Triton-X, respectively. Each experiment was run in triplicate.

[2] = test system: Danio rerio embryos and larvae; test: Fish embryo toxicity test (FET); assay type: in vivo; conditions: for Toxicity to zebrafish embryos and larvae: 5 µg/mL and 10 µg/mL, within 96 h of observation; for Mortality and deformity / Concentration at which the impact on occurrence of deformations was noticeable: zebrafish, 96 h exposure; for Mortality and deformity: concentrations above 50 μg/mL
Method: Danio rerio (Experimental Medicine Centre, Medical University of Lublin, Poland) were maintained at 28 ± 0.5 °C, under a 14/10 h light/dark cycle with standard aquaculture conditions. After mating, the fertilized eggs were collected within 30 min. Embryos were reared in E3 embryo medium (pH 7.1–7.3; […]) in an incubator (IN 110 Memmert GmbH, Germany) at 28 ± 0.5 °C. The eggs were examined to remove the unfertilized, coagulated and damaged samples. The FET test was performed based on the OECD Guidelines for the Testing Chemicals, Test No. 236. TZD hybrids were weighted, dissolved in DMSO as stock solutions, and diluted in E3 embryo medium to the indicated treatment concentrations. The stock of TZD hybrids and dilutions in E3 embryo medium were freshly prepared before testing. Embryos were incubated at each concentration (5, 10, 15, 25, 50, 75; 100 μg/mL) of TZD hybrids. The final DMSO concentration had no detectable effects on zebrafish development. The test was conducted in 24-well plates, with 5 embryos per well and 10 per group, in triplicate. The covered plates were kept at 28 ± 0.5 °C under the light/dark conditions (12 h/12 h). Embryonic viability, and the malformation rates of each treatment group were recorded at 24, 48, 72, and 96 hpf. All experiments were conducted in accordance with the National Institute of Health Guidelines for the Care and Use of Laboratory Animals and the European Community Council Directive for the Care and Use of Laboratory Animals (2010/63/EU). For the experiments on larvae up to 5 dpf, the agreement of the Local Ethical Commission is not required.

[3] = concentration reducing Hs27 viability by 30%, MTT, 24 h

SMILES	CC30 in Hs27 Cells (Hs27 cells; [3]) [µg/mL]	SI (selectivity index, CC30/IC50Tg) [1]	IC50 [1] [µg/mL]	CC30 in Hs27 Cells (Hs27 cells; human) [µg/mL]	IC50 (T98G glioblastoma cells) [µg/mL]	Papp at 180 min, 20 µg/mL (in vitro) [×10⁻⁶ cm/s]	Hemolytic activity (in words) (human red blood cells)	Toxicity to zebrafish embryos and larvae [2]	Mortality and deformity [2] [%]	Concentration at which the impact on occurrence of deformations was noticeable [2] [µg/mL]
O=C1C(O)=C([C@H]2CC[C@H](c3ccc(Cl)cc3)CC2)C(=O)c2ccccc21 [ATO, atovaquone, reference compound]	54.26 (≈ 148 µM)	227.55	0.24 (≈ 0.654 µM)	–	–	–	–	–	–	–
CCc1nc(N)nc(N)c1-c1ccc(Cl)cc1 [PYR, pyrimethamine, reference compound]	49.62 (≈ 200 µM)	17.38	2.86 (≈ 11.5 µM)	–	–	–	–	–	–	–
Nc1ccc(S(=O)(=O)Nc2ncccn2)cc1 [SDZ, sulfadiazine, reference compound]	–	1.78	1250 (≈ 5010 µM)	2230.61 (≈ 8910 µM)	–	–	–	–	–	–
COc1cc(Cc2cnc(N)nc2N)cc(OC)c1OC [TRI, trimethoprim, reference compound]	–	5.53	14.8 (≈ 50.9 µM)	81.82 (≈ 282 µM)	–	–	–	–	–	–
Cn1nnc2c(C(N)=O)ncn2c1=O [Temozolomide, temozolomide, reference compound]	–	–	–	–	> 100	–	–	–	–	–
O=C(/C=C1\SC(=O)NC1=O)Oc1cccc(/C=N/NC(=O)c2ccncc2)c1 [compound 1]	128.27 (≈ 324 µM)	9.92	12.9 (≈ 32.6 µM)	–	–	–	–	–	–	–
O=C(CC1SC(=O)NC1=O)Oc1ccc(/C=N/NC(=O)c2ccncc2)cc1 (centres unmarked) [compound 2]	>995.98	>118.93	8.37 (≈ 21 µM)	–	19.4 ± 1.13 (≈ 48.6 µM)	12.4 ± 1.02	no specific hemolytic activity	not toxic	100	–
COc1cc(/C=N/NC(=O)c2ccncc2)ccc1OC(=O)CC1SC(=O)NC1=O (centres unmarked) [compound 3]	>1071.05	>48.35	22.1 (≈ 51.7 µM)	–	–	–	–	–	–	–
CCOc1cc(/C=N/NC(=O)c2ccncc2)ccc1OC(=O)CC1SC(=O)NC1=O (centres unmarked) [compound 4]	654.42 (≈ 1480 µM)	16.77	39 (≈ 88.2 µM)	–	–	–	–	–	–	–
O=C(CC1SC(=O)NC1=O)Oc1ccc(/C=N/NC(=O)c2ccncc2)cc1Cl (centres unmarked) [compound 5]	>1082.10	>44.48	24.3 (≈ 56.2 µM)	–	–	–	–	–	–	–
O=C(CC1SC(=O)NC1=O)Oc1ccc(/C=N/NC(=O)c2ccncc2)cc1Br (centres unmarked) [compound 6]	>1193.22	>43.81	27.2 (≈ 57.1 µM)	–	–	–	–	–	–	–
NC(=S)N/N=C/c1ccc(OC(=O)CC2SC(=O)NC2=O)cc1 (centres unmarked) [compound 7]	>880.97	>148.28	5.94 (≈ 16.9 µM)	–	> 100	23.1 ± 0.71	no specific hemolytic activity	not toxic	100	25
NC(=S)N/N=C/c1ccc(OC(=O)CC2SC(=O)NC2=O)c(Cl)c1 (centres unmarked) [compound 8]	>967.09	>110.67	8.74 (≈ 22.6 µM)	–	> 100	26.1 ± 1.3	no specific hemolytic activity	not toxic	100	25
NC(=S)N/N=C/c1ccc(OC(=O)CC2SC(=O)NC2=O)c(Br)c1 (centres unmarked) [compound 9]	>1078.21	>87.75	12.3 (≈ 28.5 µM)	–	–	–	–	–	–	–
NC(=S)N/N=C/c1ccc(OC(=O)/C=C2\SC(=O)NC2=O)cc1 [compound 10]	312.27 (≈ 891 µM)	58.71	5.32 (≈ 15.2 µM)	–	94.6 ± 6.16 (≈ 270 µM)	24.4 ± 0.93	no specific hemolytic activity	not toxic	100	–
COc1cc(/C=N/NC(N)=S)ccc1OC(=O)/C=C1\SC(=O)NC1=O [compound 11]	>951.00	>78.81	12.1 (≈ 31.7 µM)	–	–	–	–	–	–	–
NC(=S)N/N=C/c1ccc(OC(=O)/C=C2\SC(=O)NC2=O)c(Cl)c1 [compound 12]	>962.05	>94.59	10.2 (≈ 26.4 µM)	–	–	–	–	–	–	–

From PMC9916616, “TZD-Based Hybrid Molecules Act as Dual Anti-Mycobacterium tuberculosis and Anti-Toxoplasma gondii Agents” (International Journal of Molecular Sciences, 2023)
